These results are taken from publication PMC9295122, “Sialic Acid Derivatives Inhibit SiaT Transporters and Delay Bacterial Growth” (ACS Chemical Biology, 2022).

Where two headings read alike, the source gives them in different places.

For one experiment, the target named is T1, PmSiaT (Proteus mirabilis, UniProt B4EZY7).
T1 construct: made in house
T1 sequence (B4EZY7 1-496): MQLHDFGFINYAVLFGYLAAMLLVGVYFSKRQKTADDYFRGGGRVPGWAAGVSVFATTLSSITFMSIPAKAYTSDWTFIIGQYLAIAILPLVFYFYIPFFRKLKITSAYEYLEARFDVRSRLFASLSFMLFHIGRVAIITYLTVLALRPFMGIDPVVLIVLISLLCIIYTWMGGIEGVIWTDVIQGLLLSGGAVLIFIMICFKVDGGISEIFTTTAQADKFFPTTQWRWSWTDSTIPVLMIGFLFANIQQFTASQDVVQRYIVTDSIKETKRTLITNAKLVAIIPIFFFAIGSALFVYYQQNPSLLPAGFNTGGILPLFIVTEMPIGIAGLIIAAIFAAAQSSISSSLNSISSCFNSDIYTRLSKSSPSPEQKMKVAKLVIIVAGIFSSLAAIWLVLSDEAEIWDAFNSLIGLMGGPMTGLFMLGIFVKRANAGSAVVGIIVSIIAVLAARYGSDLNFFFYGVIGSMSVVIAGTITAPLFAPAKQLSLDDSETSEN
As to the kind of experiment: nanoDSF thermal shift assay, PmSiaT. The format is binding. The note with it: for Average 1 / Average 2 / Average 3 / Replicate 1 / Replicate 2 / Replicate 3: PmSiaT Tm; for Average 1: average of experiment 1; for Average 2: average of experiment 2; for Average 3: average of experiment 3; for Replicate 1: experiment 1, second capillary; for Replicate 1 / Replicate 2 / Replicate 3 / Tm 1 / Tm2 / Tm 3 / Tm average overall / ΔTm at 1250 µM: 1.25 mM; for Replicate 2: experiment 2, second capillary; for Replicate 3: experiment 3, second capillary; for Tm 1 / ΔTm / Tm2 / Tm 3 / Tm average overall / ΔTm at 1250 µM: PmSiaT; for Tm 1: experiment 1, first capillary; for Tm2: experiment 2, first capillary; for Tm 3: experiment 3, first capillary; for Tm average overall / ΔTm at 1250 µM: three experiments; for ΔTm at 1250 µM: vs Neu5Ac, read-out: ΔTm average overall. Here is the method:
(§1) Nano-differential scanning fluorimetry (nanoDSF) is a high-throughput method that relies on the thermal stabilization of the folded protein state by a bound ligand.[33]
(§2) The melting points of protein–inhibitor complexes were measured on a Prometheus NT.48 instrument from NanoTemper Technologies. Solutions containing the protein at 2 μM in phosphate buffered saline with 0.0174% (w/v) dodecylmaltoside (DDM) and the ligand at 1.25 mM were loaded onto standard capillaries by NanoTemper. The temperature was increased from 25 to 95 °C at a ramp rate of 1 °C/min. The fluorescence was recorded at 330 and 350 nm and as a ratio of the two wavelengths.
(§3) The intensity ratio and its first derivative were calculated using manufacturer’s software (PR.ThermControl, version 2.1.2).
(§4) The melting temperatures have been measured in 3 separate experiments. In each experiment, two capillaries were included per compound, having therefore 2 technical replicates per experiment. In the table all data is presented. Tm1 and Replicate 1 represent the two replicates of the first experiment. Average 1 is the average between Tm 1 and Replicate 1. ΔTm 1 is the thermal shift when compared to the Tm of Neu5Ac. This is calculated from Average 1. The ΔTm presented in the article are the ΔTm average overall, which represent the overall average of the averages from the three experiments. The standard deviation (SD) is calculated from the […]
(Differential scanning fluorimetry follows unfolding on heating by fluorescence.)

For another experiment, the target named is SaSiaT (Staphylococcus aureus, UniProt A0A0H2XJ46). As to the kind of experiment: nanoDSF thermal shift assay, SaSiaT. The format is binding. The note with it: for Average 1 / Average 2 / Average 3 / Replicate 1 / Replicate 2 / Replicate 3: SaSiaT Tm; for Average 1: average of experiment 1; for Average 2: average of experiment 2; for Average 3: average of experiment 3; for Replicate 1: experiment 1, second capillary; for Replicate 1 / Replicate 2 / Replicate 3 / Tm 1 / Tm2 / Tm 3 / Overall average (Tm): 1.25 mM; for Replicate 2: experiment 2, second capillary; for Replicate 3: experiment 3, second capillary; for Tm 1 / Tm2 / Tm 3 / Overall average (Tm): SaSiaT; for Tm 1: experiment 1, first capillary; for Tm2: experiment 2, first capillary; for Tm 3: experiment 3, first capillary; for Overall average (Tm): three experiments. As for the experimental part:
as §1, §2, §3, §4

[1] abbreviates: experiment 1, vs Neu5Ac, read-out: ΔTm 1.
The mark [2] stands for this setting: experiment 2, vs Neu5Ac, read-out: ΔTm 2.
Where [3] appears, read: experiment 3, vs Neu5Ac, read-out: ΔTm 3.

SaSiaT, sequence (A0A0H2XJ46 entry or part of it): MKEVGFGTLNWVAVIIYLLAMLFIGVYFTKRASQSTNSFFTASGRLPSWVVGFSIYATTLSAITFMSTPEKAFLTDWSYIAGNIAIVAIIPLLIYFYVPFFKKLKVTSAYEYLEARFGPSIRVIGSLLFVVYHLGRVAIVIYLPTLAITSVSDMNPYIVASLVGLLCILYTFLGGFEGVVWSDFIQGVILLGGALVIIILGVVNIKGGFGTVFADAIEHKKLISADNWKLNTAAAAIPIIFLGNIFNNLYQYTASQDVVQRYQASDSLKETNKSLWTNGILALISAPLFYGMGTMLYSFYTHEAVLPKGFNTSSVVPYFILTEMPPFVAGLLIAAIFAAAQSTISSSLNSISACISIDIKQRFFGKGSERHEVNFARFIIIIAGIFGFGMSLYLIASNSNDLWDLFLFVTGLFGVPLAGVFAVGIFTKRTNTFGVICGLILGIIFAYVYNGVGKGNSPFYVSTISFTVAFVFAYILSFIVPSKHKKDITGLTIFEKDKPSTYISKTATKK

The ΔTm is the change in melting temperature against a reference sample. As to `CC(=O)NC1C(OCc2ccc(C#N)cc2)CC(O)(C(=O)O)OC1C(O)C(O)CO` (stereo not shown) [Compound 3d], on PmSiaT, the “Average 1” value worked out at 55.3 °C, the “Average 2” value stood at 53.7 °C, the “Average 3” value is 54.1 °C and the “Replicate 1” value stood at 55.4 °C. Further, on PmSiaT, the “Replicate 2” value came to 53.8 °C, the “Replicate 3” value was 54.1 °C, the “Tm 1” value stood at 55.2 °C and the Tm2 was found to be 53.6 °C. Also, on PmSiaT, the “Tm 3” value came out at 54.2 °C, the Tm average overall worked out at 54.4 °C and the ΔTm at 1250 µM stood at 5.2 °C. For the same compound, the thermal shift (ΔTm) on PmSiaT (setting [1]) came to 6.3 °C. For the same compound, the ΔTm at PmSiaT (setting [2]) is 4.5 °C. For the same compound, at PmSiaT (setting [3]), the ΔTm is 4.8 °C. Besides, on SaSiaT, the “Average 1” value was found to be 54.4 °C, the “Average 2” value turned out to be 53.6 °C, the “Average 3” value is 53.0 °C and the “Replicate 1” value is 54.3 °C. Further, at SaSiaT, the “Replicate 2” value is 53.6 °C, the “Replicate 3” value was determined as 53.9 °C, the “Tm 1” value came out at 54.4 °C and the “Tm2” value was determined as 53.6 °C. Besides, on SaSiaT, the “Tm 3” value was 52.0 °C and the “Overall average (Tm)” value worked out at 53.7 °C.
Turning to `O=C(Cc1ccccc1)NC1C(O)CC(O)(C(=O)O)OC1C(O)C(O)CO` (stereo not shown) [Compound 6e], at PmSiaT, the “Average 1” value stood at 45.4 °C, the “Average 2” value turned out to be 46.2 °C, the “Average 3” value came out at 46.0 °C and the “Replicate 1” value turned out to be 45.5 °C. On PmSiaT, the “Replicate 2” value is 46.0 °C, the “Replicate 3” value worked out at 45.9 °C, the “Tm 1” value is 45.2 °C and the Tm2 was 46.3 °C. At PmSiaT, the “Tm 3” value was 46.1 °C, the Tm average overall came out at 45.8 °C and the ΔTm at 1250 µM was -3.3 °C. Also, the ΔTm at PmSiaT (setting [1]) is -3.6 °C. Further, on PmSiaT (setting [2]), the ΔTm was -3 °C. Also, at PmSiaT (setting [3]), the ΔTm was -3.3 °C. For the same compound, on SaSiaT, the “Average 1” value is 51.2 °C, the “Average 2” value stood at 51.0 °C, the “Average 3” value turned out to be 51.4 °C and the “Replicate 1” value was 51.3 °C. For the same compound, on SaSiaT, the “Replicate 2” value turned out to be 51.1 °C, the “Replicate 3” value was found to be 51.1 °C, the “Tm 1” value came out at 51.2 °C and the “Tm2” value was 51.0 °C. At SaSiaT, the “Tm 3” value worked out at 51.8 °C and the “Overall average (Tm)” value is 51.2 °C.
As to `CC(=O)NC1C(O)CC(O)(C(=O)O)OC1C(O)C(O)CN=[N+]=[N-]` (stereo not shown) [Compound 8g], on PmSiaT, the “Average 1” value was found to be 46.0 °C, the “Average 2” value was determined as 46.1 °C, the “Average 3” value came out at 46.0 °C and the “Replicate 1” value turned out to be 45.9 °C. Besides, at PmSiaT, the “Replicate 2” value came to 46.2 °C, the “Replicate 3” value was 46.1 °C, the “Tm 1” value was 46.0 °C and the Tm2 was determined as 46.0 °C. For the same compound, at PmSiaT, the “Tm 3” value was found to be 45.9 °C and the Tm average overall came out at 46.0 °C. At SaSiaT, the “Average 1” value stood at 48.7 °C, the “Average 2” value worked out at 47.4 °C, the “Average 3” value turned out to be 48.5 °C and the “Replicate 1” value is 42.7 °C. Also, on SaSiaT, the “Replicate 2” value amounted to 47.4 °C, the “Replicate 3” value came to 48.3 °C, the “Tm2” value was determined as 47.4 °C and the “Tm 3” value was determined as 48.6 °C. The “Overall average (Tm)” value at SaSiaT was 48.2 °C.
Turning to `O=C(CCl)NC1C(O)CC(O)(C(=O)O)OC1C(O)C(O)CO` (stereo not shown) [Compound 6g], on PmSiaT, the “Average 1” value was 49.8 °C, the “Average 2” value is 49.9 °C, the “Average 3” value is 49.5 °C and the “Replicate 1” value was determined as 49.7 °C. Moreover, at PmSiaT, the “Replicate 2” value amounted to 49.9 °C, the “Replicate 3” value came to 49.5 °C, the “Tm 1” value was 49.9 °C and the Tm2 worked out at 49.9 °C. For the same compound, at PmSiaT, the “Tm 3” value amounted to 49.5 °C, the Tm average overall was found to be 49.7 °C and the ΔTm at 1250 µM was 0.6 °C. Further, the ΔTm on PmSiaT (setting [1]) amounted to 0.8 °C. Moreover, on PmSiaT (setting [2]), the ΔTm amounted to 0.7 °C. The ΔTm at PmSiaT (setting [3]) worked out at 0.2 °C. On SaSiaT, the “Average 1” value came out at 49.0 °C, the “Average 2” value was found to be 49.2 °C, the “Average 3” value turned out to be 49.3 °C and the “Replicate 1” value turned out to be 49.0 °C. For the same compound, on SaSiaT, the “Replicate 2” value is 49.0 °C, the “Replicate 3” value was found to be 48.9 °C, the “Tm 1” value was found to be 49.0 °C and the “Tm2” value amounted to 49.4 °C. Moreover, on SaSiaT, the “Tm 3” value came out at 49.7 °C and the “Overall average (Tm)” value came out at 49.2 °C.
Consider `[N-]=[N+]=NCC(=O)N[C@H]1[C@H]([C@H](O)[C@H](O)CO)O[C@@](O)(C(=O)O)C[C@@H]1O` [Compound 6h, 5-azidoacetamido-3,5-dideoxy-D-glycero-α-galacto-non-2-ulopyranosonate, reference compound], for which, at PmSiaT, the “Average 1” value was 49.2 °C, the “Average 2” value turned out to be 49.0 °C, the “Average 3” value was found to be 49.1 °C and the “Replicate 1” value was 49.2 °C. For the same compound, at PmSiaT, the “Replicate 2” value came to 48.8 °C, the “Replicate 3” value was 49.3 °C, the “Tm 1” value is 49.2 °C and the Tm2 stood at 49.2 °C. Further, on PmSiaT, the “Tm 3” value turned out to be 49.0 °C, the Tm average overall stood at 49.1 °C and the ΔTm at 1250 µM is 0 °C. Besides, the ΔTm on PmSiaT (setting [1]) was -0.1 °C. The ΔTm on PmSiaT (setting [2]) was 0.1 °C. Also, the ΔTm on PmSiaT (setting [3]) came out at 0 °C. At SaSiaT, the “Average 1” value was determined as 52.8 °C, the “Average 2” value came out at 52.9 °C, the “Average 3” value is 52.8 °C and the “Replicate 1” value was 52.7 °C. On SaSiaT, the “Replicate 2” value amounted to 53.0 °C, the “Replicate 3” value came to 52.7 °C, the “Tm 1” value is 52.8 °C and the “Tm2” value was 52.7 °C. For the same compound, at SaSiaT, the “Tm 3” value is 52.8 °C and the “Overall average (Tm)” value is 52.8 °C.
With `CC(=O)NC1C(O)CC(O)(C(=O)O)OC1C(O)C(O)CBr` (stereo not shown) [Compound 8d], at PmSiaT, the “Average 1” value stood at 47.3 °C, the “Average 2” value came to 47.2 °C, the “Average 3” value came out at 47.2 °C and the “Replicate 1” value amounted to 47.4 °C. Further, on PmSiaT, the “Replicate 2” value was 47.1 °C, the “Replicate 3” value worked out at 47.0 °C, the “Tm 1” value turned out to be 47.2 °C and the Tm2 stood at 47.3 °C. In addition, on PmSiaT, the “Tm 3” value was 47.4 °C, the Tm average overall turned out to be 47.2 °C and the ΔTm at 1250 µM was -1.9 °C. The ΔTm at PmSiaT (setting [1]) is -1.7 °C. Further, at PmSiaT (setting [2]), the ΔTm is -2 °C. Further, the ΔTm at PmSiaT (setting [3]) is -2.1 °C. At SaSiaT, the “Average 1” value was 49.9 °C, the “Average 2” value worked out at 49.9 °C, the “Average 3” value was 51.8 °C and the “Replicate 1” value was found to be 49.8 °C. At SaSiaT, the “Replicate 2” value amounted to 49.9 °C, the “Replicate 3” value amounted to 52.8 °C, the “Tm 1” value stood at 49.9 °C and the “Tm2” value turned out to be 49.9 °C. Further, at SaSiaT, the “Tm 3” value worked out at 50.8 °C and the “Overall average (Tm)” value turned out to be 50.5 °C.
